Laboratory results taken from patent US11787762B2, “Tetralin and tetrahydroquinoline compounds as inhibitors of HIF-2alpha” (ARCUS BIOSCIENCES, INC., priority 2020, dated 2023).

Experiments:
HIF-2α = target: T1, HIF-2α (Homo sapiens, UniProt Q99814); experiment: HIF-2α luciferase reporter assay in HIF-Luc-786-O cells; type: cell-based
T1 construct: host or cells: 786-O cells stably transduced with Cignal Lenti HIF Luc Reporter (only the reporter was introduced, not HIF-2α)
In short: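 Luminescence (ONE-Glo) read after 20 h compound incubation, top concentration 50 uM, 1% DMSO, 20,000 HIF-Luc-786-O cells per well. Activity scaled between DMSO maximum and no-cell baseline; four-parameter dose-response fits yielded IC50.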

[1] = target: T2, Histidine tagged HIF-2α protein containing PAS-B domain (240-350) (Homo sapiens, UniProt Q99814); experiment: HIF-2α Scintillation Proximity Assay (SPA) binding assay; conditions: 50 nM HIF-2α protein, 25 nM 3H-tracer
T2 construct: HIF-2α protein containing PAS-B domain (240-350); made in house
T2 sequence (Q99814 240-350): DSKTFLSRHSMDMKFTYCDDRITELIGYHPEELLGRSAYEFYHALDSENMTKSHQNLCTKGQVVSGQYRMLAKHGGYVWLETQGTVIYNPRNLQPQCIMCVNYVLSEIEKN
In short: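 His-tagged HIF-2α PAS-B (240-350), 50 nM final, preincubated with compound 1 h at room temperature in 25 mM Tris-HCl pH 7.4, 150 mM NaCl, 0.15% BSA, 0.001% Tween 20, 2% DMSO. Copper-chelate SPA beads (3 ug/well, 45 min) and 25 nM tritiated N-(3-chlorophenyl)-4-nitro-2,1,3-benzoxadiazol-5-amine tracer followed; IC50 from four-parameter fits.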

T1 sequence (Q99814 whole entry): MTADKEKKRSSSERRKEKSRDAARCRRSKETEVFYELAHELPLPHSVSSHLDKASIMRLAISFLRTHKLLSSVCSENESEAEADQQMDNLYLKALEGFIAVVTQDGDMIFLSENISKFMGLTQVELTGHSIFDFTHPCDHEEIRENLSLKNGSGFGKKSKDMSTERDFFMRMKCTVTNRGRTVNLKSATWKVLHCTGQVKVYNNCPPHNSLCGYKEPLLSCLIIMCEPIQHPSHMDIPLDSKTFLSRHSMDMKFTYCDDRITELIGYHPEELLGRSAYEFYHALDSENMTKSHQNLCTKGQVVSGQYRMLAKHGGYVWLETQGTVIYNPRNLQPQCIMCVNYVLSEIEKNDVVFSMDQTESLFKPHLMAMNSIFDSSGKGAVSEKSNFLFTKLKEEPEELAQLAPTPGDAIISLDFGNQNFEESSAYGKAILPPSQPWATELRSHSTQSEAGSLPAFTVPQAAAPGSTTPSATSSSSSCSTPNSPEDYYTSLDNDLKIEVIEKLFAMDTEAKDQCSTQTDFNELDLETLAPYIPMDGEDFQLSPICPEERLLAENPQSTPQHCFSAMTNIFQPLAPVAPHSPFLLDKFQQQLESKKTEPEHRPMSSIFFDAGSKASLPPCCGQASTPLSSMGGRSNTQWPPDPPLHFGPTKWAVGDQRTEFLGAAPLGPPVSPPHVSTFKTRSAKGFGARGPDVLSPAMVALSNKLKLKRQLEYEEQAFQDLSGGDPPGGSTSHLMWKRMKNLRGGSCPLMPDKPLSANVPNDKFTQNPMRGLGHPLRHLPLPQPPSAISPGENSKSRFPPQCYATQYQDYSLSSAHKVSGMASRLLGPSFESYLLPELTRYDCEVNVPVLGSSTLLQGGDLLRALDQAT

Compound	IC50 (HIF-2α; Table 1, 20 hours incubation)	IC50 ([1]; Table 1)	also measured
CS(=O)(=O)c1ccc(N2CCOc3cc(F)cc(C#N)c32)c2c1[C@H](O)[C@H](F)C2 [Example 20, 7-fluoro-4-((1S,2R)-2-fluoro-1-hydroxy-7-(methylsulfonyl)-2,3-dihydro-1H-inden-4-yl)-3,4-dihydro-2H-benzo[b] [1,4]oxazine-5-carbonitrile]	> 1000 nM	> 1000 nM	–
Cc1cn[nH]c1-c1ccc([C@H]2CC[C@H](F)c3cc(F)cc(C#N)c32)c2c1[C@H](O)C(F)(F)C2 [Example 154, (5S,8R)-8-[(1S)-2,2-difluoro-1-hydroxy-7-(4-methyl-1H-pyrazol-5-yl)-1,3-dihydroinden-4-yl]-3,5-difluoro-5,6,7,8-tetrahydronaphthalene-1-carbonitrile]	–	–	IC50 (HIF-2α; Table 3, 20 hours incubation): < 100 nM; IC50 ([1]; Table 3): < 100 nM
CS(=O)(=O)c1ccc(N2CCCc3cc(F)cc(F)c32)c(C(F)F)c1C#N [Example 53]	> 1000 nM	> 1000 nM	–
Cn1nccc1-c1ccc([C@H]2CC[C@H](F)c3cc(F)cc(C#N)c32)c2c1[C@H](O)[C@H](F)C2 [Example 157, (5S,8R)-3,5-difluoro-8-[(1S,2R)-2-fluoro-1-hydroxy-7-(2-methylpyrazol-3-yl)-2,3-dihydro-1H-inden-4-yl]-5,6,7,8-tetrahydronaphthalene-1-carbonitrile]	–	–	IC50 (HIF-2α; Table 3, 20 hours incubation): < 100 nM; IC50 ([1]; Table 3): < 100 nM
COC1CCN(c2ccc(C(F)(F)F)c(F)c2C#N)c2c(C#N)cc(F)cc21 (stereo not shown) [Example 131, 1-[2-Cyano-3-fluoro-4-(trifluoromethyl)phenyl]-6-fluoro-4-methoxy-3,4-dihydro-2H-quinoline-8-carbonitrile]	–	–	IC50 (HIF-2α; Table 2, 20 hours incubation): < 100 nM; IC50 ([1]; Table 2): < 100 nM
CS(=O)(=O)c1ccc([C@H]2CCCc3cc(F)cc(F)c32)c2c1[C@H](O)[C@H](F)C2 [Example 4, (1S,2R)-4-[(1R)-6,8-difluoro-1,2,3,4-tetrahydronaphthalen-1-yl]-2-fluoro-7-methanesulfonyl-2,3-dihydro-1H-inden-1-ol]	100 to 1000 nM	< 100 nM	–
CS(=O)(=O)c1ccc(N2CCCc3cc(F)cc(F)c32)c2c1[C@H](O)C(F)(F)C2 (stereo in doubt) [Example 22, 4-(6,8-difluoro-1,2,3,4-tetrahydroquinolin-1-yl)-2,2-difluoro-7-methanesulfonyl-2,3-dihydro-1H-inden-1-ol]	> 1000 nM	100 to 1000 nM	–
Cc1ccncc1-c1ccc([C@H]2CC[C@H](F)c3cc(F)cc(C#N)c32)c2c1[C@H](O)C(F)(F)C2 [Example 241, (5S,8R)-8-[(1S)-2,2-difluoro-1-hydroxy-7-(4-methylpyridin-3-yl)-2,3-dihydro-1H-inden-4-yl]-3,5-difluoro-5,6,7,8-tetrahydronaphthalene-1-carbonitrile]	–	–	IC50 (HIF-2α; Table 3, 20 hours incubation): < 100 nM; IC50 ([1]; Table 3): < 100 nM
CS(=O)(=O)c1ccc([C@H]2NCCc3cc(F)cc(F)c32)c2c1[C@H](O)C(F)(F)C2 [Example 111]	> 1000 nM	> 1000 nM	–
N#Cc1cc(F)cc2c1N(c1ccc(S(=O)(=O)C(F)(F)F)c3c1C[C@@H](F)[C@H]3O)CCO2 [Example 19, 7-fluoro-4-((1S,2R)-2-fluoro-1-hydroxy-7-((trifluoromethyl)sulfonyl)-2,3-dihydro-1H-inden-4-yl)-3,4-dihydro-2H-benzo[b][1,4]oxazine-5-carbonitrile]	100 to 1000 nM	100 to 1000 nM	–
N#Cc1cc(F)cc2c1N(c1ccc(C(F)(F)F)c(F)c1C#N)C[C@H](F)[C@@H]2F [Example 130, (3S,4R)-1-[2-Cyano-3-fluoro-4-(trifluoromethyl)phenyl]-3,4,6-trifluoro-1,2,3,4-tetrahydroquinoline-8-carbonitrile]	–	–	IC50 (HIF-2α; Table 2, 20 hours incubation): < 100 nM; IC50 ([1]; Table 2): < 100 nM
N#Cc1c(S(N)(=O)=O)ccc(N2CCCc3cc(F)cc(F)c32)c1C(F)F [Example 72]	> 1000 nM	> 1000 nM	–
N#Cc1cc(F)cc2c1[C@@H](c1ccc(S(=O)(=O)C(F)(F)F)c3c1CC[C@H]3O)CCC2 [Example 90]	< 100 nM	< 100 nM	–
O=S1(=O)c2ccc(N3CCCc4cc(F)cc(F)c43)c(Cl)c2C(O)C1(F)F (stereo not shown) [Example 52]	> 1000 nM	100 to 1000 nM	–
